# From patent publication US20040044006A1, “Methods of use of quinolone compounds against pneumococcal and haemophilus bacteria” (priority 1999, published 2004)
# Like-named read-outs stand apart in the source and are kept apart here.
# Assays:
# [1] = test system: quinolone-resistant Haemophilus influenzae strains; experiment: Microdilution MIC determination in HTM for quinolone-resistant Haemophilus influenzae strains; assay type: cell-based; settings: 9 quinolone-resistant Haemophilus influenzae strains
# Procedure, shortened: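 Broth microdilution in HTM, inoculum from 24 h chocolate agar colonies by direct suspension to a final 3-8×10^5 CFU/ml. Incubated in ambient air at 35° C. for 20-24 hours; MIC read as the lowest concentration with no growth.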
# [2] = test system: pneumococci with ciprofloxacin MICs ≧8 μg/ml; experiment: Quinolone agar dilution MICs of 28 ciprofloxacin resistant pneumococcal strains, correlated with QRDR mutations; assay type: cell-based, Streptococcus pneumoniae
# Protocol: Additionally these strains were tested for mutations in parC, gyrA, parE, and gyrB (Pan, et al. Antimicrob. Agents Chemother. 40:2321-2326, 1996) and for efflux mechanism (Brenwald, et ail., Antimicrob. Agents Chemother. 42:2032-2035, 1998).
# Gemifloxacin susceptibility powder was obtained from SmithKline Beecham Laboratories, Harlow, UK. Agar dilution methodology was performed on 28 strains as described previously (M. R. Jacobs, Clin. Infect. Dis. 15: 119-127, […] and M. R. Jacobs, Rev. Med. Microbiol. 6:77-93, 1995), using Mueller-Hinton altar (BBL Microbiology Systems, Cockeysville, Md.) supplemented with 5% sheep blood. Standard quality control strains, including Streptococcus pneumoniae ATCC 49619, were included in each run of agar dilution MICs.
# [3] = test system: pneumococcal strains; experiment: Microbroth dilution MICs of strains tested by time-kill and PAE; assay type: cell-based; settings: Streptococcus pneumoniae, read-out: Microdilution MIC
# Procedure, shortened: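 Broth MICs per NCCLS in cation-adjusted Mueller-Hinton broth with 5% lysed defibrinated horse blood. Used for 12 time-kill and 6 PAE strains. S. pneumoniae ATCC 49619 run as quality control.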
# [4] = test system: pneumococci (5 quinolone susceptible and 1 resistant strains); experiment: Post-antibiotic effect (PAE) testing; assay type: cell-based, Streptococcus pneumoniae
# Procedure, shortened: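 Pneumococci (~5×10^6 cfu/ml) in MHB with 5% lysed horse blood were exposed 1 h at 35 °C, the quinolone-resistant strain at 5×MIC, then diluted 1:1000. Viable counts every 2 h until McFarland #1 turbidity. PAE = T − C, the 1 log10 regrowth time versus untreated control; mean of two assays ±SD.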
# [5] = agar dilution, 28 strains with ciprofloxacin MICs ≧8.0 μg/ml
smiles,measurement,setting,value
"Cc1c(F)c(N2CCNC(C)C2)cc2c1c(=O)c(C(=O)O)cn2C1CC1 (centres unmarked) [Grepafloxacin, grepafloxacin]",MIC50,[1],1 µg/mL
same,MIC Range,[1],0.25 to 4.0 µg/mL
same,MIC50,[2]; Streptococcus pneumoniae,4 µg/mL
same,MIC90,[2]; Streptococcus pneumoniae,8 µg/mL
same,MIC,"[2]; Streptococcus pneumoniae, read-out: MICs in strains with three or four QRDR mutations, 20 strains, bound holds in all 20 (ciprofloxacin, levofloxacin, sparfloxacin), 19 (grepafloxacin), 10 (trovafloxacin), 18 (gemifloxacin)",> 1 µg/mL
same,MIC,"[2]; Streptococcus pneumoniae, read-out: MICs in strains with three or four QRDR mutations, 21 strains, bound holds in all 21 (ciprofloxacin, levofloxacin, sparfloxacin), 20 (grepafloxacin), 11 (trovafloxacin), 19 (gemifloxacin)",≥ 1 µg/mL
same,MIC,"[2]; Streptococcus pneumoniae, strain 1, ParC S79-F, ParE I460-V, GyrA S81-F, GyrB None",4 µg/mL
same,MIC,"[2]; Streptococcus pneumoniae, strain 1, ParC S79-F, ParE I460-V, GyrA S83-F, GyrB None",4 µg/mL
same,MIC,"[2]; Streptococcus pneumoniae, strain 2, ParC S79-Y, ParE I460-V, GyrA None, GyrB None",0.5 µg/mL
same,MIC,"[2]; Streptococcus pneumoniae, strain 3, ParC D83-N, ParE I460-V, GyrA S81-F, GyrB None",0.5 µg/mL
same,MIC,"[2]; Streptococcus pneumoniae, strain 3, ParC D83-N, ParE I460-V, GyrA S83-F, GyrB None",0.5 µg/mL
same,MIC,"[2]; Streptococcus pneumoniae, strain 4, ParC S79-F, ParE I460-V, GyrA S81-F, GyrB None",1 µg/mL
same,MIC,"[2]; Streptococcus pneumoniae, strain 4, ParC S79-F, ParE I460-V, GyrA S83-F, GyrB None",1 µg/mL
same,MIC,"[2]; Streptococcus pneumoniae, strain 5, ParC R95-C, ParE D435-N, GyrA S81-F, GyrB None",1 µg/mL
same,MIC,"[2]; Streptococcus pneumoniae, strain 5, ParC R95-C, ParE D435-N, GyrA S83-F, GyrB None",1 µg/mL
same,MIC,"[2]; Streptococcus pneumoniae, strain 6, ParC S79-Y, ParE I460-V, GyrA E85-K, GyrB None",2 µg/mL
same,MIC,"[2]; Streptococcus pneumoniae, strain 6, ParC S79-Y, ParE I460-V, GyrA E87-K, GyrB None",2 µg/mL
same,MIC,"[2]; Streptococcus pneumoniae, strain 7, ParC None, ParE I460-V, GyrA None, GyrB None",1 µg/mL
same,MIC,"[2]; Streptococcus pneumoniae, strain 8, ParC S79-Y, ParE None, GyrA None, GyrB None",1 µg/mL
same,MIC,"[2]; Streptococcus pneumoniae, strain 9, ParC S79-Y, ParE None, GyrA None, GyrB None",1 µg/mL
same,MIC,"[2]; Streptococcus pneumoniae, strain 10, ParC S79-F, ParE I460-V, GyrA S81-C, GyrB None",2 µg/mL
same,MIC,"[2]; Streptococcus pneumoniae, strain 10, ParC S79-F, ParE I460-V, GyrA S83-C, GyrB None",2 µg/mL
same,MIC,"[2]; Streptococcus pneumoniae, strain 11, ParC S79-F, ParE I460-V, GyrA S81-F, GyrB None",4 µg/mL
same,MIC,"[2]; Streptococcus pneumoniae, strain 11, ParC S79-F, ParE I460-V, GyrA S83-F, GyrB None",4 µg/mL
same,MIC,"[2]; Streptococcus pneumoniae, strain 12, ParC S79-F, ParE I460-V, GyrA None, GyrB D435-N",4 µg/mL
same,MIC,"[2]; Streptococcus pneumoniae, strain 13, ParC S79-F, ParE I460-V, GyrA None, GyrB E474-K",2 µg/mL
same,MIC,"[2]; Streptococcus pneumoniae, strain 14, ParC S79-F, ParE I460-V, GyrA S81-F, GyrB None",4 µg/mL
same,MIC,"[2]; Streptococcus pneumoniae, strain 14, ParC S79-F, ParE I460-V, GyrA S83-F, GyrB None",4 µg/mL
same,MIC,"[2]; Streptococcus pneumoniae, strain 15, ParC 79-F, ParE I460-V, GyrA S83-F, GyrB None",4 µg/mL
same,MIC,"[2]; Streptococcus pneumoniae, strain 15, ParC S79-F, ParE I460-V, GyrA S81-F, GyrB None",4 µg/mL
same,MIC,"[2]; Streptococcus pneumoniae, strain 16, ParC S79-F, ParE I460-V, GyrA S81-F, GyrB None",4 µg/mL
same,MIC,"[2]; Streptococcus pneumoniae, strain 16, ParC S79-F, ParE I460-V, GyrA S83-F, GyrB None",4 µg/mL
same,MIC,"[2]; Streptococcus pneumoniae, strain 17, ParC D83-N, ParE None, GyrA S81-F, GyrB None",4 µg/mL
same,MIC,"[2]; Streptococcus pneumoniae, strain 17, ParC D83-N, ParE None, GyrA S83-F, GyrB None",4 µg/mL
same,MIC,"[2]; Streptococcus pneumoniae, strain 18, ParC S79-F, ParE I460-V, GyrA S81-F, GyrB None",4 µg/mL
same,MIC,"[2]; Streptococcus pneumoniae, strain 18, ParC S79-F, ParE I460-V, GyrA S83-F, GyrB None",4 µg/mL
same,MIC,"[2]; Streptococcus pneumoniae, strain 19, ParC S79-F, ParE I460-V, GyrA S81-F, GyrB None",4 µg/mL
same,MIC,"[2]; Streptococcus pneumoniae, strain 19, ParC S79-F, ParE I460-V, GyrA S83-F, GyrB None",4 µg/mL
same,MIC,"[2]; Streptococcus pneumoniae, strain 20, ParC S79-F, ParE I460-V, GyrA E85-K, GyrB None",4 µg/mL
same,MIC,"[2]; Streptococcus pneumoniae, strain 20, ParC S79-F, ParE I460-V, GyrA E87-K, GyrB None",4 µg/mL
same,MIC,"[2]; Streptococcus pneumoniae, strain 21, ParC S79-F, ParE I460-V, GyrA S81-F, GyrB None",4 µg/mL
same,MIC,"[2]; Streptococcus pneumoniae, strain 21, ParC S79-F, ParE I460-V, GyrA S83-F, GyrB None",4 µg/mL
same,MIC,"[2]; Streptococcus pneumoniae, strain 22, ParC S79-F, ParE I460-V, GyrA S81-Y, GyrB None",4 µg/mL
same,MIC,"[2]; Streptococcus pneumoniae, strain 22, ParC S79-F, ParE I460-V, GyrA S83-Y, GyrB None",4 µg/mL
same,MIC50,[2]; [5],4.0 µg/mL
same,MIC90,[2]; [5],8.0 µg/mL
same,MIC Range,[2]; [5],0.5 to 16.0 µg/mL
same,MIC Range,"[2]; agar dilution, 28 strains with ciprofloxacin MICs ≧8.0 μg/ml, listed as grepafloxacin",0.5 to 16 µg/mL
same,MIC,[3]; strain 1 (S) penicillin susceptible,0.06 µg/mL
same,MIC,[3]; strain 2 (S) penicillin susceptible,0.06 µg/mL
same,MIC,"[3]; strain 3 (S) penicillin susceptible, quinolone-resistant",16 µg/mL
same,MIC,"[3]; strain 4 (S) penicillin susceptible, quinolone-resistant",8 µg/mL
same,MIC,[3]; strain 5 (I) penicillin intermediate,0.125 µg/mL
same,MIC,[3]; strain 6 (I) penicillin intermediate,0.125 µg/mL
same,MIC,[3]; strain 7 (I) penicillin intermediate,0.125 µg/mL
same,MIC,[3]; strain 8 (I) penicillin intermediate,0.125 µg/mL
same,MIC,[3]; strain 9 (R) penicillin resistant,0.25 µg/mL
same,MIC,[3]; strain 10 (I),0.125 µg/mL
same,MIC,[3]; strain 11 (R) penicillin resistant,0.125 µg/mL
same,MIC,[3]; strain 12 (R) penicillin resistant,0.25 µg/mL
same,PAE,"[4]; 5×MIC, quinolone resistant strain",1.5 h
same,PAE,"[4]; 10×MIC for 1 h, range over 5 quinolone susceptible strains",0.3 to 2.6 h
